In US20080255153A1, “New compounds” (BIOVITRUM AB (publ), priority 2007, published 2008):

Target: T1, stearoyl-CoA desaturase (SCD) (Rattus norvegicus, UniProt P07308)
T1 construct: 0.032 mg/ml rat liver microsomes (total protein content); from tissue
T1 sequence (P07308 1-358): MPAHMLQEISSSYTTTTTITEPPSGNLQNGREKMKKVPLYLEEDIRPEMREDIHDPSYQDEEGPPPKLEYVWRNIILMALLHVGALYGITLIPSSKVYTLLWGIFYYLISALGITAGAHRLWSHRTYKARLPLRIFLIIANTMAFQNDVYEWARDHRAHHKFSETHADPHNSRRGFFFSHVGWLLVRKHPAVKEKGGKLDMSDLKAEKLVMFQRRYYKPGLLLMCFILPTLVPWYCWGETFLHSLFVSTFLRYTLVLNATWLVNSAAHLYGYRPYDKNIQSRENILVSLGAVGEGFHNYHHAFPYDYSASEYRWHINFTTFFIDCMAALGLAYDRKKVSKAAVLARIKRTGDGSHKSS
Experiment: Tritium release screening assay for inhibition of stearoyl-CoA desaturase activity in rat liver microsomes (96- or 384-well)
Format: biochemical
Details: [3H]-stearoyl-CoA, 20 min pre-incubation, 20 min reaction
Source text: The tritium release assay for the measurement of SCD activity is thus well documented in the literature. Descriptions on how these finding have been used to produce standard screening assays in 96-well plates are also available [Brownlie, Hayden, Attie, Ntambi, Gray-Keller, & Miyazaki (2001) WO 01/62954; Wu, Gallipoli, Gallagher, & Gardell (2004) WO 2004/04776]. We have adopted the tritium release assay to a 384-well format to improve throughput even further.
Microsomal preparations were prepared from the livers of Male Sprague-Dawley rats that had been fasted and then refed a low fat/high carbohydrate diet. The preparation of microsomes was adopted from Seifried and Gaylor [Seifried & Gaylor (1976) J. Biol. Chem. 251, 7468-7473]. Confirmation of compound activity on human material was made based on microsomal preparations from HepG2 cells. All other reagents were purchased from commercial sources. The assay was run in 96 or 384-well microtiter plates by consecutive additions of a test compound solution, a microsomal preparation solution and a substrate containing solution. The final concentrations of all reagents in a total assay volume of 40 μl per well (in the 384-well plate format) were: • 0.11 μM [^3H]-stearoyl-CoA • 50 nM stearoyl-CoA • 0.032 mg/ml rat liver microsomes (total protein content) • 2 mM NADH • 220 mM sucrose • 44 mM NaH2PO4 pH adjusted to 6.8 • 130 mM KCl • 1.3 mM GSH • 0.05 mM CoA • 0.1% BSA • 0.29 mM nicotine amide • 15 mM NaF • 1.1 mM ATP • 4.9 mM MgCl2 • 0.002% Tween-20 • A test compound at various concentrations (which also adds 0.5-2% DMSO to the final solution)
The test compounds were pre-incubated for 20 minutes with the microsomal preparation prior to starting the reaction by the addition of substrate. The enzymatic reaction was allowed to proceed for 20 minutes and then optionally slowed by an addition of 40 μl of a 2% DMSO solution in water containing a known inhibitor of SCD activity. The solutions were mixed and then 70 μl of the total 80 μl were transferred to a filter plate containing predispensed activated charcoal. The plate was then centrifuged and the filtrate collected in a collector plate to which 40 μl of Optiphase Supermix was added per well. Following an 18 h equilibration time at room temperature the plate was read in a Trilux MicroBeta (two minutes counting time per well). […] The inhibitory potency or IC50 values of test compounds on SCD activity were defined by applying the same assay in the presence of sub-nM to sub-mM compound concentrations.

`O=CNCCNC(=O)c1cnn2cc(Cc3ccc(Br)cc3)cnc12` [Example 25, 6-(4-Bromobenzyl)-N-[2-(formylamino)ethyl]pyrazolo[1,5-α]pyrimidine-3-carboxamide] and `NC(=O)CNC(=O)c1cnn2cc(Cc3cccc(Cl)c3Cl)cnc12` [Example 56, N-(2-Amino-2-oxoethyl)-6-(2,3-dichlorobenzyl)pyrazolo[1,5-α]pyrimidine-3-carboxamide] are within 1.5-fold of each other in IC50: 27 nM for the first, 22 nM for the second.

Going from `Cc1nc2c(C(=O)NCCOCCO)cnn2cc1Cc1ccc(F)c(OC(F)(F)F)c1` [Example 38, 6-[4-Fluoro-3-(trifluoromethoxy)benzyl]-N-[2-(2-hydroxyethoxy)ethyl]-5-methyl-pyrazolo[1,5-α]pyrimidine-3-carboxamide] to `Cc1c(Cc2ccccc2)cnc2c(C(=O)NCCOCCO)cnn12` [Example 39, 6-Benzyl-N-[2-(2-hydroxyethoxy)ethyl]-7-methylpyrazolo[1,5-α]pyrimidine-3-carboxamide], the IC50 rises from 140 nM to 610 nM (4.4-fold). The first is the more potent here.

Compared with `NC(=O)COC(=O)c1cnn2cc(Cc3ccc(F)c(C(F)(F)F)c3)cnc12` [Example 48, 2-Amino-2-oxoethyl 6-[4-fluoro-3-(trifluoromethyl)benzyl]pyrazolo[1,5-α]pyrimidine-3-carboxylate], `NC(=O)CNC(=O)c1cnn2cc(Sc3cccc(C(F)(F)F)c3)cnc12` [Example 50, N-(2-Amino-2-oxoethyl)-6-{[3-(trifluoromethyl)phenyl]thio}pyrazolo[1,5-α]-pyrimidine-3-carboxamide] is 5.3-fold higher in IC50: 91 nM for the first, 480 nM for the second.
